According to article PMC11249637, “Interaction of the Atypical Tetracyclines Chelocardin and Amidochelocardin with Renal Drug Transporters” (ACS Pharmacology & Translational Science, 2024):

How the values were obtained:
mOct1 = target: T1, mOct1 (Mus musculus, UniProt O08966); assay: Three-point uptake (substrate assessment) in mOct1-overexpressing HEK293 cells; assay type: in vitro ADME
T1 construct: expressed in transfected cells; host or cells: HEK293
T1 sequence (O08966 1-556): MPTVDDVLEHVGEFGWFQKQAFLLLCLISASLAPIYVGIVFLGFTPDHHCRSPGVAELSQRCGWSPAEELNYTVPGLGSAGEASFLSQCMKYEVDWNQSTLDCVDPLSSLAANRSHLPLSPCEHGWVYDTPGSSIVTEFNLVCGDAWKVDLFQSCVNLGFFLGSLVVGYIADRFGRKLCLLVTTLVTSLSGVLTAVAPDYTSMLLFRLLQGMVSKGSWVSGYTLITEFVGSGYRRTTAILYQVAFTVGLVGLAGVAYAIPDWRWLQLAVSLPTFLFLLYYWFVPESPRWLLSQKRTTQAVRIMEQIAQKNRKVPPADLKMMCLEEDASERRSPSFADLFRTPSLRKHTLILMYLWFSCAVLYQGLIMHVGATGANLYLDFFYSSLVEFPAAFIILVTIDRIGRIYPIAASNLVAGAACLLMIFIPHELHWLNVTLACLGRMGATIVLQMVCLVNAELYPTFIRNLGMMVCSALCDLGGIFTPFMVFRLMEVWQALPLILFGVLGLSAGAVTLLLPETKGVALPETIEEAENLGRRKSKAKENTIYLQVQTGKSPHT
Protocol: (§1) This is important to gain a better understanding of the underlying mechanisms of secretion into urine. Therefore, we assessed the amount of compound taken up by the vector and transporter cells at three different concentrations (1, 10, and 100 μM for mOat1 and mOct1; 0.1, 1, and 10 μM for mOat3) and at two different incubation periods (1 and 5 min for mOat1 and mOct1; 5 and 10 min for mOat3).
The incubation buffer contained CHD and CDCHD in a final concentration of 1, 10, and 100 μM. After 1 and 5 min, the incubation was terminated. In addition, the probe inhibitor decynium22 (50 μM) was added in one concentration to 10 μM CHD and CDCHD, respectively, and after 1 and 5 min, the incubation was stopped. Inhibition of mOct1-mediated ^3H-MPP (10 μM) uptake by 50 μM decynium22 was performed as a control experiment. After 1 min, the incubation was terminated. All experiments were conducted in triplicate.
First, a calibration curve was prepared by spiking different concentrations of CHD and CDCHD into the cell matrix. Caffeine was used as an internal standard. In addition, quality control samples (QCs) were prepared for CHD and CDCHD in a cell matrix. The following extraction procedures were used: 300 μL of acetonitrile/water (1:1) is added to the cell pellet (sample or calibration/QC sample) for 15 min at 2000 rpm on an Eppendorf MixMate vortex mixer. 10 μL of this extracted sample is used for further analysis. 10 μL of the extracted cell sample is further extracted with 25 μL of a mixture of methanol/acetonitrile (2:1) containing 12.5 ng/mL caffeine as an internal standard (on ice) for 5 min at 2000 rpm on an Eppendorf MixMate vortex mixer. Then, samples were spun down at 15,870 × g for 10 min. Supernatants were transferred to standard HPLC glass vials. Samples were analyzed using an Agilent 1290 Infinity II HPLC system coupled to an AB Sciex QTrap6500plus mass spectrometer. LC conditions were as follows: column: Agilent Zorbax Eclipse Plus C18, 50 × 2.1 mm, 1.8 μm; temperature: 30°C; injection volume: 5 μL per sample; flow rate: 700 μL/min. Samples were run under the following conditions. Solvents: A: 100% water +0.1% formic acid; solvent B: 100% acetonitrile +0.1% formic acid. The gradient for CDCHD was as follows: 99% A at 0 min, 99% A until 0.1 min, 99–90% A from 0.1 to 1.0 min, 90–50% A from 1.0 to 2.4 min, 50–35% A from 2.4 to 2.7 min, 35–0% A from 2.7 until 4.5 min, 0% A until 5.5 min, 0–99% from 5.5 to 5.7 min, 99% A until 6.0 min. The gradient for CHD was as follows: 99% A at 0 min, 99% A until 0.1 min, 99–90% A from 0.1 to 1.0 min, 90–55% A from 1.0 to 2.3 min, 55–40% A from 2.3 to 2.5 min, 40–0% A from 2.5 until 4.5 min, 0% A until 5.5 min, 0–99% from 5.5 to 5.7 min, 99% A until 6.0 min. Mass transitions are depicted in Table S2.
For statistical testing of differences in uptake ratio or for the inhibitory effect, an ordinary one-way ANOVA test was performed using GraphPad Prism 9.5.1 software. For statistical testing of difference in uptake on vector- or transporter-overexpressing cells, an ordinary two-way ANOVA test was performed using GraphPad Prism 9.5.1 software. Michaelis–Menten kinetics were determined using the Michaelis–Menten algorithm of GraphPad Prism 9.5.1 software. Image resolution was adjusted by using GIMP software.

mOat3 = target: T2, mOat3 (Mus musculus, UniProt O88909); assay: Three-point uptake (substrate assessment) in mOat3-overexpressing HEK293 cells; assay type: in vitro ADME
T2 construct: expressed in transfected cells; host or cells: HEK293
T2 sequence (O88909 1-537): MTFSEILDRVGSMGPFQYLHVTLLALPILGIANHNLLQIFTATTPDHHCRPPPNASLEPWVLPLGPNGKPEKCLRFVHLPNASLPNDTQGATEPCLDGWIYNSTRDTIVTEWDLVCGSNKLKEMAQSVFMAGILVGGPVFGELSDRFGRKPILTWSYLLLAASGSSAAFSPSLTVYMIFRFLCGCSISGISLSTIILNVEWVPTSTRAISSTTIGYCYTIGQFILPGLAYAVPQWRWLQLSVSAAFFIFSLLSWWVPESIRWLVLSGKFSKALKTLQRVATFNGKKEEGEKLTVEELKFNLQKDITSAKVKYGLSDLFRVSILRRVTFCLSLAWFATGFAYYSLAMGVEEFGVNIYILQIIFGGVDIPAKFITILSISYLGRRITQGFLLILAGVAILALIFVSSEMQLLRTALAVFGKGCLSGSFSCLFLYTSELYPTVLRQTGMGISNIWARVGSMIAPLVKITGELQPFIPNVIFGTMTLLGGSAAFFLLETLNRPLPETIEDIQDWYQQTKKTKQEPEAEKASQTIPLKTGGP
Protocol: as §1
The incubation buffer contained CHD and CDCHD in a final concentration of 0.1, 1, and 10 μM. After 5 and 10 min, the incubation was terminated. In addition, the probe inhibitor probenecid (100 μM) was added in one concentration to 10 μM CHD and CDCHD, respectively, and after 5 and 10 min, the incubation was stopped. Inhibition of mOat3-mediated ^3H-ES (1 μM) uptake by 100 μM probenecid was performed as a control experiment. After 1 min, the incubation was terminated. All experiments were conducted in triplicate.
First, a calibration curve was prepared by spiking different concentrations of CHD and CDCHD into the cell matrix. Caffeine was used as an internal standard. In addition, quality control samples (QCs) were prepared for CHD and CDCHD in a cell matrix. The following extraction procedures were used: 300 μL of acetonitrile/water (1:1) is added to the cell pellet (sample or calibration/QC sample) for 15 min at 2000 rpm on an Eppendorf MixMate vortex mixer. 10 μL of this extracted sample is used for further analysis. 10 μL of the extracted cell sample is further extracted with 25 μL of a mixture of methanol/acetonitrile (2:1) containing 12.5 ng/mL caffeine as an internal standard (on ice) for 5 min at 2000 rpm on an Eppendorf MixMate vortex mixer. […] Samples were analyzed using an Agilent 1290 Infinity II HPLC system coupled to an AB Sciex QTrap6500plus mass spectrometer. […]
For statistical testing of differences in uptake ratio or for the inhibitory effect, an ordinary one-way ANOVA test was performed using GraphPad Prism 9.5.1 software. […] Michaelis–Menten kinetics were determined using the Michaelis–Menten algorithm of GraphPad Prism 9.5.1 software. […]

Row | Structure (SMILES) | substrate of mOct1 (in words) (mOct1) | uptake ratio (cells without vs with decynium22), mOct1 (mOct1; 10 μM compound, 50 μM decynium22, 1 and 5 min) | mOct1: Vmax (mOct1; Michaelis–Menten fit, 1, 10 and 100 μM) [nM/min] | substrate of mOat3 (in words) (mOat3) | less uptake in the presence of the specific inhibitor decynium22, mOct1 (mOct1; 10 μM compound, 50 μM decynium22, 5 min) | Km (mOat3; Michaelis–Menten fit, 0.1, 1 and 10 μM) [µM]
1 | Cc1ccc2c(C)c3c(c(O)c2c1O)C(=O)[C@@]1(O)C(=O)C(C(N)=O)=C(O)[C@@H](N)[C@H]1C3 [CDCHD, amidochelocardin] | is not a substrate | 1 | 15.0 | is not a substrate |  | 
2 | CC(=O)C1=C(O)[C@@H](N)[C@H]2Cc3c(c(O)c4c(O)c(C)ccc4c3C)C(=O)[C@@]2(O)C1=O [CHD, chelocardin] | is a substrate |  |  | is a substrate | around 50% | 6.1
